The text below walks through data of patent US20220380574A1, “DUAL-FUNCTION MELT ADDITIVES” (3M INNOVATIVE PROPERTIES COMPANY, priority 2019, published 2022).

This test concerns S. aureus ATCC 6538. Put plainly: Modified AATCC Method 100, antibacterial activity of nonwoven BMF webs (viable cell count after 24 hrs). In kind it is cell-based. Conditions: statement in words on the additive in electret webs. The text has this:
Besides the charge-enhancing properties, the charge-enhancing additives also provide anti-microbial properties. Antimicrobials are agents that kill microorganisms or stops their growth. Antimicrobials work at a cellular level to continually disrupt and prevent the growth of microorganisms. By creating an inhospitable environment for microorganisms like bacteria, mold and mildew, antimicrobials protect everyday products like countertops, toys, surface coatings, textiles and hospital equipment. The antimicrobial activity of the current charge-enhancing additives in electret webs can be measured in a variety of different ways. One particularly suitable measurement technique is the standard test method of “Modified AATCC Method 100—Assessment of Antibacterial Finishes on Textile Materials” was used for the nonwoven webs performance test. This method is used to evaluate the antibacterial activity of textile products treated with antibacterial finish, which is suitable for nonwoven hydrophobic fabric webs. Details of the test method are provided in the Examples section, below. The standard test method of “Modified AATCC Method 100—Assessment of Antibacterial Finishes on Textile Materials” was used for the nonwoven webs performance test. […] Viable cell count of S. Aureus ATCC 6538 on BMF web after 24 hrs were measured.

`c1ccc(-c2nc3ccccc3[nH]2)cc1` [CA-4, 2-Phenylbenzimidazole]: the “combination of charge-enhancing and anti-microbial properties” value was “do not have this combination of properties”.
